Reference: the supplement of paper PMC6045584
± gives the standard deviation of the averaged measurements.

How the values were obtained:
[1] = compound: CCN(CC)CCCCNc1ncc2cc(-c3cc(OC)cc(OC)c3)c(NC(=O)NC(C)(C)C)nc2n1; experiment: surviving fraction relative to DMSO-only wells; higher = less growth inhibition; conditions: exposure time: 5 days
Outline: (§1)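 For each tumour cell line, log-phase cells were put into 384-well plates at 250–500 cells per well, then after 24 hours exposed continuously for five days to inhibitors at 0.5, 1, 5, 10, 50, 100, 500 and 1000 nM. Viability was assessed by CellTiter-Glo luminescence, with surviving fraction expressed relative to the median of DMSO-only wells. Lines were screened three times and retained only if replicate Pearson r exceeded 0.7 and median Z' exceeded 0.3.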

[2] = compound: Nc1ncn([C@H]2C[C@H](O)[C@@H](CO)O2)c(=O)n1 [DECITABINE]; experiment: as above; conditions: exposure time: 5 days
Outline: as §1

Row | Test System | surviving fraction ([1]; 0.5 nM) | surviving fraction ([1]; 1 nM) | surviving fraction ([1]; 5 nM) | surviving fraction ([1]; 10 nM) | surviving fraction ([1]; 50 nM) | surviving fraction ([1]; 100 nM) | surviving fraction ([1]; 500 nM) | surviving fraction ([1]; 1000 nM) | surviving fraction ([2]; 0.5 nM) | surviving fraction ([2]; 1 nM) | surviving fraction ([2]; 5 nM) | surviving fraction ([2]; 10 nM) | surviving fraction ([2]; 50 nM) | surviving fraction ([2]; 100 nM) | surviving fraction ([2]; 500 nM) | surviving fraction ([2]; 1000 nM)
1 | BT20 BREAST | 1.17 ± 0.13 | 1.17 ± 0.065 | 1.09 ± 0.26 | 1.17 ± 0.09 | 1.17 ± 0.12 | 1.12 ± 0.029 | 1.53 ± 0.17 | 1.64 ± 0.057 | 1.24 ± 0.16 | 1.14 ± 0.086 | 1.33 ± 0.072 | 1.28 ± 0.12 | 1.46 ± 0.037 | 1.33 ± 0.073 | 1.1 ± 0.075 | 0.844 ± 0.069
2 | BT549 BREAST | 1.16 ± 0.13 | 1.16 ± 0.11 | 1.15 ± 0.11 | 1.19 ± 0.077 | 1.18 ± 0.17 | 1.04 ± 0.096 | 0.932 ± 0.059 | 0.843 ± 0.068 | 1.16 ± 0.084 | 1.16 ± 0.23 | 0.976 ± 0.095 | 1.06 ± 0.042 | 0.721 ± 0.051 | 0.724 ± 0.045 | 0.537 ± 0.064 | 0.452 ± 0.058
3 | C33A CERVIX | 0.832 ± 0.044 | 0.831 ± 0.077 | 0.921 ± 0.068 | 0.914 ± 0.1 | 0.968 ± 0.1 | 0.871 ± 0.12 | 0.828 ± 0.073 | 0.814 ± 0.065 | 0.969 ± 0.043 | 0.941 ± 0.064 | 0.963 ± 0.045 | 1.06 ± 0.036 | 0.9227 ± 0.0078 | 0.909 ± 0.075 | 0.697 ± 0.1 | 0.685 ± 0.082
4 | CADOES1 SOFT TISSUE | 0.942 ± 0.1 | 0.905 ± 0.1 | 0.935 ± 0.21 | 0.913 ± 0.071 | 0.895 ± 0.076 | 0.9 ± 0.036 | 0.901 ± 0.056 | 1.05 ± 0.043 | 0.915 ± 0.1 | 0.962 ± 0.14 | 0.772 ± 0.11 | 0.951 ± 0.047 | 0.596 ± 0.096 | 0.448 ± 0.05 | 0.316 ± 0.061 | 0.278 ± 0.041
5 | CAL51 BREAST | 0.92 ± 0.063 | 0.943 ± 0.013 | 0.964 ± 0.061 | 0.961 ± 0.042 | 0.858 ± 0.035 | 0.83 ± 0.03 | 0.673 ± 0.019 | 0.6517 ± 0.0035 | 1.03 ± 0.028 | 0.98 ± 0.034 | 1 ± 0.041 | 0.952 ± 0.046 | 0.95 ± 0.12 | 0.865 ± 0.15 | 0.586 ± 0.077 | 0.481 ± 0.021
